Laboratory results published in patent US20060063782A1, “3-Hetero arylmethoxy ! pyridines and their analogues as p38 map kinase inhibitors” (priority 2002, published 2006).

Biological target: p38 MAP kinase (Homo sapiens, UniProt Q16539)
Assay: p38 MAP Kinase Assay (33P incorporation into myelin basic protein, filter plate)
Type: biochemical
Conditions: MKK6-activated p38, MBP substrate, 50 minutes
Description: The activated p38 is then diluted 1:6 with assay buffer, and 20 μl mixed with 25 μl of MBP mix (300 μl 10×strength assay buffer, 300 μl of 10 mM DTT & 10 mM sodium orthovanadate, 1.7 ml H2O, 50 μCi γ^33P-ATP, 200 μl of myelin basic protein (MBP) (5 mg/ml)) and added to 96 well plates along with 5 μl of various dilutions of the test compound in DMSO (up to 10%). The reaction is allowed to proceed for 50 minutes before being stopped with an excess of ortho-phosphoric acid (30 μl at 2%).
γ^33P-ATP which remains unincorporated into the myelin basic protein is separated from phosphorylated MBP on a Millipore MAPH filter plate. The wells of the MAPH plate are wetted with 0.5% orthophosphoric acid, and then the results of the reaction are filtered with a Millipore vacuum filtration unit through the wells. Following filtration, the residue is washed twice with 200 μl of 0.5% orthophosphoric acid. Once the filters have dried, 25 μl of Microscint 20 scintillant is added, and then counted on a Packard Topcount for 30 seconds.

p38 MAP kinase, sequence (Q16539 whole entry): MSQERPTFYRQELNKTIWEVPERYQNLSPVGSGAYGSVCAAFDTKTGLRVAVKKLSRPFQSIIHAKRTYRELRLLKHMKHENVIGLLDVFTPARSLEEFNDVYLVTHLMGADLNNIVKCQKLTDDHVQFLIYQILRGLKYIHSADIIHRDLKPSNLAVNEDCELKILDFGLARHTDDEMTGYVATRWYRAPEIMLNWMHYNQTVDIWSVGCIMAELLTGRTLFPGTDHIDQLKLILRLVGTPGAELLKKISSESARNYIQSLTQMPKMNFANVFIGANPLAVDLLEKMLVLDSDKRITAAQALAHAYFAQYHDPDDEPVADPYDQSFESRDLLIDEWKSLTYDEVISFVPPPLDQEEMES

Structure (SMILES) | IC50 (Table 1) [µM] | IC50 (Table 2) [µM]
O=C(Nc1ccc(Cl)c(COc2cccnc2)c1)c1cccc(Cl)c1 [Compound 70, 3-Chloro-N-[4-chloro-3-(pyridin-3-yloxymethyl)-phenyl]-benzamide] | < 20 | 
O=C1c2ccccc2C(O)N1c1ccc(Cl)c(COc2cccnc2)c1 (stereo not shown) [Compound 73] | < 200 | 
O=C(Nc1ccc(F)c(COc2cccnc2)c1)c1cncc(N2CCOCC2)n1 [Compound 75, 6-Morpholin-4-yl-pyrazine-2-carboxylic acid [4-fluoro-3-(pyridin-3-yloxymethyl)-phenyl]-amide] | < 20 | 
O=C(Nc1ccc(Cl)c(COc2ccc(NCc3ccccc3)nc2)c1)c1cc(F)cc(N2CCOCC2)c1 [Compound 77, N-[3-(6-Benzylamino-pyridin-3-yloxymethyl)-4-chloro-phenyl]-3-fluoro-5-morpholin-4-yl-benzamide] | < 2 | 
CC(C)(C)c1ccccc1NC(=O)Nc1ccc(F)c(COc2cccnc2)c1 [Compound 78, 1-(2-tert-Butyl-phenyl)-3-[4-fluoro-3-(pyridin-3-yloxymethyl)-phenyl]-urea] | < 20 | 
O=C(Nc1ccc(Cl)c(COc2cccnc2)c1)Oc1ccccc1 [Compound 79, [4-Chloro-3-(pyridin-3-yloxymethyl)-phenyl]-carbamic acid phenyl ester] | < 20 | 
O=C1c2ccccc2CN1c1ccc(F)c(COc2cccnc2)c1 [Compound 80] | < 1000 | 
CC(C)c1nnc(NC(=O)Nc2ccc(F)c(COc3cccnc3)c2)s1 [Compound 81, 1-[4-Fluoro-3-(pyridin-3-yloxymethyl)-phenyl]-3-(5-isopropyl-[1,3,4]thiadiazol-2-yl)-urea] | < 20 | 
Nc1nccnc1OCc1cccc2ccccc12 [Compound 82] |  | < 1000
Nc1ncc(OCc2cccc3ccccc23)nc1Br [Compound 83] |  | < 1000
Nc1ncc(OCc2ccccc2)nc1Br [Compound 84] |  | < 1000
Nc1cccc(COc2cncc(Cl)n2)c1 [Compound 85] |  | < 1000
Nc1cnc(OCc2ccccc2)cn1 [Compound 86] |  | < 1000
Clc1cccc(Cl)c1COc1cnccn1 [Compound 87] |  | < 200
Clc1cnc(OCc2c(Cl)cccc2Cl)cn1 [Compound 88] |  | < 1000
CC(C)(C)OC(=O)Nc1ccc(Cl)c(COc2cnccn2)c1 [Compound 89] |  | < 1000
Nc1nccnc1OCc1c(Cl)cccc1Cl [Compound 90] |  | < 1000
Nc1ccc(Cl)c(COc2cnccn2)c1 [Compound 91] |  | < 1000
O=C(Nc1ccc(Cl)c(COc2cnccn2)c1)c1ccccc1 [Compound 92, N-[4-Chloro-3-(pyrazin-2-yloxymethyl)-phenyl]-benzamide] |  | < 20
O=C(Nc1ccc(Cl)c(COc2cnccn2)c1)c1ccnc(N2CCOCC2)c1 [Compound 93, N-[4-Chloro-3-(pyrazin-2-yloxymethyl)-phenyl]-2-morpholin-4-yl-isonicotinamide] |  | < 2
CC(C)(C)c1cc(NC(=O)Nc2ccc(Cl)c(COc3cnccn3)c2)[nH]n1 [Compound 95] |  | < 20
O=C(Nc1ccc(F)c(COc2cnccn2)c1)Nc1nnc(CC2CC2)s1 [Compound 96, 1-(5-Cyclopropylmethyl-[1,3,4]thiadiazol-2-yl)-3-[4-fluoro-3-(pyrazin-2-yloxymethyl)-phenyl]-urea] |  | < 2
CC(C)c1nnc(NC(=O)Nc2ccc(F)c(COc3cnccn3)c2)s1 [Compound 97, 1-[4-Fluoro-3-(pyrazin-2-yloxymethyl)-phenyl]-3-(5-isopropyl-[1,3,4]thiadiazol-2-yl)-urea] |  | < 20
O=C(Nc1ccc(F)c(COc2cnccn2)c1)c1cccc(S(=O)(=O)N2CCOCC2)c1 [Compound 98, N-[4-Fluoro-3-(pyrazin-2-yloxymethyl)-phenyl]-3-(morpholine-4-sulfonyl)-benzamide] |  | < 2
O=C(Nc1ccc(F)c(COc2cnccn2)c1)Oc1cccc(C(F)(F)F)c1 [Compound 99, [4-Fluoro-3-(pyrazin-2-yloxymethyl)-phenyl]-carbamic acid 3-trifluoromethyl-phenyl ester] |  | < 20

Structure (SMILES) | IC50 (Table 1) [µM] | IC50 (Table 2) [µM]
CC(C)(C)c1csc(NC(=O)Nc2ccc(F)c(COc3cnccn3)c2)n1 [Compound 100, 1-(4-tert-Butyl-thiazol-2-yl)-3-[4-fluoro-3-(pyrazin-2-yloxymethyl)-phenyl]-urea] |  | < 20
CC(C)(C)c1ccc(C(=O)Nc2ccc(F)c(COc3cnccn3)c2)cc1 [Compound 101, 4-tert-Butyl-N-[4-fluoro-3-(pyrazin-2-yloxymethyl)-phenyl]-benzamide] |  | < 20
O=C(Nc1ccc(F)c(COc2cnccn2)c1)c1cccc(Oc2ccccc2)c1 [Compound 102, N-[4-Fluoro-3-(pyrazin-2-yloxymethyl)-phenyl]-3-phenoxy-benzamide] |  | < 2
CC(C)(C)c1cccc(C(=O)Nc2ccc(F)c(COc3cnccn3)c2)c1 [Compound 103, 3-tert-Butyl-N-[4-fluoro-3-(pyrazin-2-yloxymethyl)-phenyl]-benzamide] |  | < 2
COc1cc(C(=O)Nc2ccc(F)c(COc3cnccn3)c2)nc(Cl)n1 [Compound 105, 2-Chloro-6-methoxy-pyrimidine-4-carboxylic acid [4-fluoro-3-(pyrazin-2-yloxymethyl)-phenyl]-amide] |  | < 1000
CC(C)(C)c1cc(NC(=O)Nc2ccc(F)c(COc3cnccn3)c2)n(-c2ccccc2)n1 [Compound 106, 1-(5-tert-Butyl-2-phenyl-2H-pyrazol-3-yl)-3-[4-fluoro-3-(pyrazin-2-yloxymethyl)-phenyl]-urea] |  | < 2
O=C(Nc1ccccc1)Oc1cccc(COc2cnccn2)c1 [Compound 107, Phenyl-carbamic acid 3-(pyrazin-2-yloxymethyl)-phenyl ester] |  | < 200
c1ccc(CNc2cccc(COc3cnccn3)c2)cc1 [Compound 108] |  | < 1000
c1cc(COc2cnccn2)cc(Nc2nc3ccccc3o2)c1 [Compound 109] |  | < 200
Nc1cnc(OCc2c(Cl)cccc2Cl)cn1 [Compound 110] |  | < 200
CCNC(=O)c1cnc(OCc2c(Cl)cccc2Cl)cn1 [Compound 111, 5-(2,6-Dichloro-benzyloxy)-pyrazine-2-carboxylic acid ethylamide] |  | < 1000
O=C(NCCO)c1cnc(OCc2c(Cl)cccc2Cl)cn1 [Compound 112, 5-(2,6-Dichloro-benzyloxy)-pyrazine-2-carboxylic acid (2-hydroxy-ethyl)-amide] |  | < 1000
CC(C)(CO)NC(=O)c1cnc(OCc2c(Cl)cccc2Cl)cn1 [Compound 113, 5-(2,6-Dichloro-benzyloxy)-pyrazine-2-carboxylic acid (2-hydroxy-1,1-dimethyl-ethyl)-amide] |  | < 20
CCN(CC)C(=O)Nc1cnc(OCc2c(Cl)cccc2Cl)cn1 [Compound 114] |  | < 200
O=C(Nc1ccc(F)c(COc2cnccn2)c1)Nc1nnc(-c2ccccc2)s1 [Compound 115, 1-[4-Fluoro-3-(pyrazin-2-yloxymethyl)-phenyl]-3-(5-phenyl-[1,3,4]thiadiazol-2-yl)-urea] |  | < 200
Cc1cc(C)c2nc(NC(=O)Nc3ccc(F)c(COc4cnccn4)c3)sc2c1 [Compound 116, 1-(4,6-Dimethyl-benzothiazol-2-yl)-3-[4-fluoro-3-(pyrazin-2-yloxymethyl)-phenyl]-urea] |  | < 1000
O=C(Nc1ccc(F)c(COc2cnccn2)c1)Nc1cc(-c2ccccc2)[nH]n1 [Compound 118, 1-[4-Fluoro-3-(pyrazin-2-yloxymethyl)-phenyl]-3-(5-phenyl-1H-pyrazol-3-yl)-urea] |  | < 2
O=C(Nc1ccc(F)c(COc2cnccn2)c1)Nc1n[nH]cc1-c1ccccc1 [Compound 119, 1-[4-Fluoro-3-(pyrazin-2-yloxymethyl)-phenyl]-3-(4-phenyl-1H-pyrazol-3-yl)-urea] |  | < 20
O=C(Nc1ccc(F)c(COc2cnccn2)c1)Nc1nnc(C2CCCO2)s1 (stereo not shown) [Compound 120, 1-[4-Fluoro-3-(pyrazin-2-yloxymethyl)-phenyl]-3-[5-(tetrahydro-furan-2-yl)-[1,3,4]thiadiazol-2-yl]-urea] |  | < 2
O=C(Nc1ccc(F)c(COc2cnccn2)c1)Nc1nnc(Cc2ccccc2)s1 [Compound 121, 1-(5-Benzyl-[1,3,4]thiadiazol-2-yl)-3-[4-fluoro-3-(pyrazin-2-yloxymethyl)-phenyl]-urea] |  | < 2
Cc1noc(-c2ccccc2)c1C(=O)Nc1ccc(F)c(COc2cnccn2)c1 [Compound 122, 3-Methyl-5-phenyl-isoxazole-4-carboxylic acid [4-fluoro-3-(pyrazin-2-yloxymethyl)-phenyl]-amide] |  | < 200
O=C(Nc1ccc(F)c(COc2cnccn2)c1)Nc1nc(-c2ccccc2)cs1 [Compound 123, 1-[4-Fluoro-3-(pyrazin-2-yloxymethyl)-phenyl]-3-(4-phenyl-thiazol-2-yl)-urea] |  | < 20
Cc1nc(-c2cc(C(=O)Nc3ccc(F)c(COc4cnccn4)c3)no2)cs1 [Compound 124, 5-(2-Methyl-thiazol-4-yl)-isoxazole-3-carboxylic acid [4-fluoro-3-(pyrazin-2-yloxymethyl)-phenyl]-amide] |  | < 200
CC(C)(C)c1cc(NC(=O)Nc2ccc(F)c(COc3cnccn3)c2)n(-c2ccc(F)cc2F)n1 [Compound 125, 1-[5-tert-Butyl-2-(2,4-difluoro-phenyl)-2H-pyrazol-3-yl]-3-[4-fluoro-3-(pyrazin-2-yloxymethyl)-phenyl]-urea] |  | < 2
